From PMC12454603 (Archives of Toxicology, 2025)
Values joined by “and” are separate entries in the source; they are usually repeats but may differ in a detail not shown here. Identical values can stand only once. “Also recorded” adds a separate entry of the source. Like-named read-outs stand apart in the source and are kept apart here.

Columns and labels:
[1] = In vivo kinetic study, intravenous 50 mg/kg bw, blood concentrations; conditions: rat, 50 mg/kg bw parent PAH
Description: Six male Sprague–Dawley rats at the age of 8–9 weeks weighing 286-305g/rat were obtained from Charles River Inc (Beijing, China). The rats were maintained in plastic cages in two groups of three in a temperature-controlled (ranging from 20 °C to 25 °C) and humidity-controlled (ranging from 40–70%) environment on a 12-h light–dark cycle. The animal bedding was corncob and used after autoclaving. The bedding and the cages were changed twice a week. The number of animals was restricted to 3 per dose group and control blood samples were collected before dosing. Feeding and living conditions followed the Chinese Laboratory Animal-Requirement of environment and housing facilities (GB14925-2010). The present rat study was approved by Institutional Animal Care and Use Committee (IACUC-BF202305006).
All animals were fasted 8 h before intravenous injection and resumed feed supply 4 h after dosing.
After administration, blood samples (0.1–0.2 ml blood volume) were taken from the medial canthus venous plexus of the animal and anticoagulated with sodium heparin. Prior to orbital venipuncture and blood collection, the animals were anesthetized by CO2 inhalation (70% CO2 + 30% O2). Blood was sampled at 1 min, 0.5, 1, 2, 4, 8, 12, 24, 32, 48, and 72 h post-dosing. After collection, blood samples were frozen and were stored at −20 °C until analysis. All animals were euthanized with 100% CO2 after the experiment.
Aliquots of 100 µL of blood samples were transferred into centrifuge tubes and 700 µL sodium acetate buffer (0.1M, pH 5.0) and 6 µL β-glucuronidase-arylsulfatase were added. The samples were incubated for 1 h at 37 °C and subsequently extracted twice with 800 µL ethyl acetate saturated with water. The samples were shaken for 30 min and centrifuged 5 min at 2000 g (4 °C). The upper organic phase was transferred to a centrifuge tube and evaporated under a gentle stream of nitrogen at 40 ℃ in a water bath. The residues were re-dissolved with 200 µL ascorbic acid:methanol (1:100). […]

[2] = test system: ES-D3 cells (differentiation into contracting cardiomyocytes); experiment: ES-D3 cell differentiation assay of the mouse embryonic stem cell test (mEST); assay type: cell-based; conditions: for IC50: Mus musculus, Cardiomyocyte, 240 h, read-out: IC50 for inhibition of differentiation of ES-D3 cells into beating cardiomyocytes; for Outcome in the differentiation assay of the mEST: parent PAH tested without bioactivation
Description: The developmental toxicity of the test compounds was assessed by the inhibitory effect on the differentiation of cells of the ES-D3 cell line into contracting cardiomyocytes. The assay was performed essentially as previously described (Kamelia et al. [2020]). The cells were cultured on the lid of a 96-well plate in 45 hanging drops (volume 20 µL/drop) at a concentration of 37,500 cells/ml. The 96 wells were filled with 250 µL PBS to maintain the humidity. Sterile Eppendorf lids were placed at the corners of the 96-well plate to prevent the hanging drops from contacting the 96-well plate. The plates were sealed with micropore tape and incubated at 37 °C with 5% CO2 in a humidified atmosphere for 72 h. After 72 h, 5 ml exposure medium was prepared for each concentration of each test compound with 0.25% DMSO in a 60 × 15 mm petri dish. The formed embryonic bodies (EBs) in the hanging drops on the lid of the 96-well plate were washed off with exposure medium and collected in the petri dish. The Petri dish was subsequently incubated at 37 °C with 5% CO2 in a humidified atmosphere for 48 h. After 48 h, the EBs were transferred to a 24-well plate filled with 1 ml exposure medium per well. Each well contained 1 EB. The 24-well plates were incubated at 37 °C with 5% CO2 in a humidified atmosphere for 120 h. The number of EBs with contracting cardiomyocytes and the undifferentiated EBs were counted under a microscope. In the solvent (DMSO) control, the presence of more than 21 EBs with contracting cardiomyocytes out of 24 EBs indicates a valid assay. In each experiment, 0.5 µM (0.065 µg/ml) 5-FU was used as a positive control. The result of the differentiation assay is expressed as the fraction of differentiated EBs of the total number of EBs.
(§1) The concentration–response data for the test compounds in the mEST were presented in three curves including curves for 1-day cytotoxicity, 5-day cytotoxicity, and 10-day differentiation assays. The obtained curves were fitted using the inhibition equation log (inhibitor) vs response (three parameters) option using GraphPad Prism software 5.0 (California, USA).

[3] = test system: ES-D3 cells; experiment: ES-D3 cell cytotoxicity (WST-1 viability) assay of the mEST; assay type: cell-based, mouse
Description: The viability of the ES-D3 cells following 1-day and 5-day exposure to the test compounds was measured with the WST-1 assay. To this end, 100 µL cell suspension was seeded in the inner 60 wells of 96-well plates at a concentration of 2 × 10^5 cells/ml for 1-day exposure and 10^4 cells/ml for 5-day exposure and incubated at 37 °C with 5% CO2 for 24 h. After 24 h, 100 µL exposure medium with 0.25% DMSO and the required concentration of the test compounds, solvent control, and positive control were added to the cells in triplicate. The plates were incubated at 37 °C with 5% CO2 for 1 day or 5 days until measurement. After the exposure period, 20 µL of the cell proliferation reagent WST-1 were added to each well that contained cells and the cells were incubated for 3 h at 37 °C with 5% CO2. The absorbance of each plate was measured at 440 nm and 620 nm with a SpectraMax iD3 (San Jose, USA).
as §1

[4] = test system: P450 enzymes in rat liver microsomes; parameters: method as in Wang et al. 2022; conditions: cited from earlier work
[5] = test system: P450 enzymes in rat liver microsomes; experiment: P450-mediated oxidative metabolism of 8-MBaP/BaP in rat liver microsomes; assay type: in vitro ADME
Description: 3-OH-8-MBaP was subsequently modeled to be conjugated by glucuronidation and sulfation in the liver. The kinetic constants for these conjugation reactions were determined in incubation experiments described in Sect. […] The scaling factors from rat liver microsomes and rat liver S9 to the whole liver were 45 mg microsomal protein/g liver and 125 mg S9 protein/g liver, respectively (Houston and Galetin [2008]).

[6] = test system: rats; parameters: method as in Wang et al. 2021; conditions: rat, oral exposure, previously predicted dose–response curve; ref Wang et al. 2021; cited from earlier work
[7] = parameters: method as in Sun et al. 2002; conditions: 8-MBaP assumed to be the same as BaP; ref Sun et al. 2002; cited from earlier work
[8] = test system: rats; experiment: PBK modeling-facilitated reverse dosimetry (QIVIVE) of mEST data to predict developmental toxicity; conditions: rat
Description: The relationship between the in vivo 3-OH-8-MBaP concentration in maternal blood (C in vivo) and the in vitro 3-OH-8-MBaP concentration in the mEST (Cin vitro) was described by the following Eq. (2): 2 Cinvivo∗fub,invivo=Cinvitro∗fub,invitro
The fraction unbound in blood (fub, in vivo) of 3-OH-8-MBaP was calculated as 0.004 (Table 2) based on the methodology mentioned in Sect. “PBK model for 8-MBaP in rats”. The fraction unbound in the mEST (fub, in vitro) was assumed to be half of the fub, in vivo based on the ratio between the protein content in rat blood plasma (7.5%) and the mEST assay medium (15%). The unbound concentration in vitro (Cub, in vitro) inducing the developmental toxicity response in mEST was converted using Eq. (2) to an unbound concentration in blood (Cub,in vivo) that was further converted by the PBK model to a predicted oral dose.

[9] = test system: rats; parameters: method as in Archibong et al. 2002; conditions: rat; derived from reported in vivo dose–response data; ref Archibong et al. 2002; cited from earlier work
[10] = scaled to whole liver, liver weight 9.1 g
[11] = scaled with 45 mg microsomal protein/g liver

Structure (SMILES) | Observed in vivo Cmax relative to the model prediction (lower) [1] [fold] | IC50 [2] [µM] | Cytotoxicity accompanying the inhibition of differentiation ([3]; 1-day and 5-day cytotoxicity, ES-D3 cells) | Outcome in the differentiation assay of the mEST [2] | Km ([4]; read-out: Km, 8-MBaP to 3-OH-8-MBaP, ref Wang et al. 2022, listed as 8MBaP) [µM] | Km ([4]; read-out: Km, 8-MBaP to 3-OH-8-MBaP, ref Wang et al. 2022) [µM] | Km ([4]; read-out: Km, 8-MBaP to other metabolites, sum of other metabolites, ref Wang et al. 2022, listed as 8MBaP) [µM] | Km ([4]; read-out: Km, 8-MBaP to other metabolites, sum of other metabolites, ref Wang et al. 2022) [µM] | Vmax, 8-MBaP to 3-OH-8-MBaP ([4]; ref Wang et al. 2022) | Vmax, 8-MBaP to other metabolites ([4]; sum of other metabolites, ref Wang et al. 2022) | IC50 ([3]; Mus musculus, 120 h, 5-day exposure, WST-1, read-out: IC50 for reduction of cell viability on Day 5) [µM] | Scaled Vmax, 8-MBaP to 3-OH-8-MBaP [5, 10] [µmol/h/liver] | Scaled Vmax, 8-MBaP to other metabolites [5, 10] [µmol/h/liver] | Scaled Vmax, 8-MBaP to 3-OH-8-MBaP [5, 11] [µmol/h/g liver] | Scaled Vmax, 8-MBaP to other metabolites [5, 11] [µmol/h/g liver] | ED50 for developmental toxicity, model prediction [6] [mg/kg bw] | Permeability coefficient (Papp), apparent intestinal permeability in vivo [7] [dm/hr] | Predicted ED50 of BaP (present study) relative to previously predicted ED50 of BaP (lower) ([8]; oral, versus Wang et al. 2021) [fold] | Predicted ED50 of BaP (present study) relative to ED50 from the reported in vivo study (higher) ([8]; versus Archibong et al. 2002) [fold] | ED50 for developmental toxicity, in vivo toxicity study [9] [mg/kg bw]
Oc1ccc2ccc3c4ccccc4cc4ccc1c2c43 [3-OHBaP, 3-hydroxy-benzo[a]pyrene, reference compound] | 2.6 | 1.51 | non-cytotoxic concentrations |  |  |  |  |  |  |  |  |  |  |  |  |  |  |  |  | 
Cc1ccc2c(c1)cc1ccc3cccc4ccc2c1c34 [8-MBaP, 8-methyl-benzo[a]pyrene] |  | 0.83 |  | negative | 12 | 11.6 | 8 | 8.07 | 0.07 nmol/min/mg microsomal protein and 0.07^a nmol/min/mg microsomal protein | 0.43 nmol/min/mg microsomal protein and 0.43^a nmol/min/mg microsomal protein | 1.74 | 2 | 11 | 0.19 | 1.18 |  |  |  |  | 
c1ccc2c(c1)cc1ccc3cccc4ccc2c1c34 [BaP, benzo[a]pyrene] |  |  |  | inactive; also recorded: negative |  |  |  |  |  |  |  |  |  |  |  | 15.1 | 0.02 | 0.9 | 1.3 | 10.8
